The values below come from publication PMC8510595, “Vanillin enones as selective inhibitors of the cancer associated carbonic anhydrase isoforms IX and XII. The out of the active site pocket for the design of selective inhibitors?” (Journal of Enzyme Inhibition and Medicinal Chemistry, 2021).

Read-outs that look alike come from different tables or passages of the source. A value given as a limit tells only on which side of the number the result lay.

Experiment in all cases: stopped-flow CO2 hydration assay
Holding throughout (type): biochemical

The target of one assay is T1, hCA XII (Homo sapiens, UniProt O43570).
T1 construct: gene CA12; recombinant, obtained in the authors' laboratory; transmembrane isoform
To be noted: read-out: Ki (μM)^b / hCA XII.

The target in a further assay is T2, hCA II (Homo sapiens, UniProt P00918).
T2 construct: gene CA2; recombinant, obtained in the authors' laboratory; cytosolic

The next assay has as its target T3, hCA I (Homo sapiens, UniProt P00915).
T3 construct: gene CA1; recombinant, obtained in the authors' laboratory; cytosolic
Conditions: read-out: Ki (μM)^b / hCA I.

A further assay deals with T4, hCA IX (Homo sapiens, UniProt Q16790).
T4 construct: gene CA9; recombinant, obtained in the authors' laboratory; transmembrane isoform
To be noted: read-out: Ki (μM)^b / hCA IX.

T1 sequence (O43570 25-354 limits assumed): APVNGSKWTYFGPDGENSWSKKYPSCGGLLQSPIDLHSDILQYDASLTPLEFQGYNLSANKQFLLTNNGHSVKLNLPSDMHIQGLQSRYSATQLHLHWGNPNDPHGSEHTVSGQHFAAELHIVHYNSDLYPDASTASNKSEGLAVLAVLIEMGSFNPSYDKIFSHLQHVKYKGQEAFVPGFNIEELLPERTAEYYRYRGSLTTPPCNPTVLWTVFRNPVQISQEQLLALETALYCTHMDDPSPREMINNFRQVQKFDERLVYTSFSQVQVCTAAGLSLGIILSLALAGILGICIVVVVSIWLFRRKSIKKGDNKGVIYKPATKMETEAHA
T3 sequence (P00915 2-261): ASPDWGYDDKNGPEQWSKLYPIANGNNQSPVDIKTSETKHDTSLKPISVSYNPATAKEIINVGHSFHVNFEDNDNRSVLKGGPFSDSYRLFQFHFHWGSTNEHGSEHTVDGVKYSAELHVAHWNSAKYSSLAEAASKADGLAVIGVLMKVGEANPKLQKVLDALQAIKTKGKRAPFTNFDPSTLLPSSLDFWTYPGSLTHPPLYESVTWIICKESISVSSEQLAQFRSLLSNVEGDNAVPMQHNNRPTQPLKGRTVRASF

As to `COc1cc(/C=C/C(=O)c2ccccc2)ccc1O` [compound 6, (E)-3–(4-Hydroxy-3-methoxyphenyl)-1-phenylprop-2-en-1-one], the Ki at hCA XII was found to be 0.63 µM; at hCA II (read-out: Ki (μM)^b / hCA II), 96.4 µM; at hCA I, 76.3 µM; on hCA IX, 29.1 µM.
For `COc1cc(/C=C/C(=O)c2ccc(Br)cc2)ccc1O` [compound 7, (E)-1–(4-Bromophenyl)-3–(4-hydroxy-3-methoxyphenyl)prop-2-en-1-one], in that order: 6.4 µM, 82 µM, 92.6 µM and greater than 100 µM.
On to `COc1cc(/C=C/C(=O)CC(C)C)ccc1O` [compound 5, (E)-1–(4-Hydroxy-3-methoxyphenyl)-5-methylhex-1-en-3-one], for which the Ki at hCA XII was 1.7 µM; at hCA II (read-out: Ki (μM)^b / hCA I), greater than 100 µM; at hCA I it was greater than 100 µM; on hCA IX, 26.3 µM.
In the case of `COc1cc(/C=C/C(=O)C[C@@H]2O[C@H](CO)[C@@H](O)[C@H](O)[C@H]2O)ccc1O` [compound 1, 1-(β-D-glucopyranosyl)-4–(4-hydroxy-3-methoxyphenyl)but-3-en-2-one], the Ki was 4.8 µM at hCA XII, greater than 100 µM at hCA II (read-out: Ki (μM)^b / hCA II), 71.6 µM at hCA I and 30.8 µM on hCA IX.
With `CCC(=O)/C=C/c1ccc(O)c(OC)c1` [compound 4, (E)-1–(4-Hydroxy-3-methoxyphenyl)pent-1-en-3-one], the Ki is 2.5 µM on hCA XII, greater than 100 µM at hCA II (read-out: Ki (μM)^b / hCA I), greater than 100 µM at hCA I and 32 µM on hCA IX.
On to `COc1cc(/C=C/C(=O)C[C@@H]2O[C@H](CO)[C@H](O)[C@H](O)[C@H]2O)ccc1O` [compound 2, 1-(β-D-galactopyranosyl)-4–(4-hydroxy-3-methoxyphenyl)but-3-en-2-one], for which the Ki at hCA XII was 2.5 µM; on hCA II (read-out: Ki (μM)^b / hCA II), greater than 100 µM; on hCA I, 80.5 µM; on hCA IX, 20.8 µM.
